# PubChem BioAssay (NCI)
#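 Tested at 5 concentrations; 48 h exposure; 96-well plates; endpoints linearly interpolated, else capped at highest concentration. TGI marks complete inhibition of growth.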
# Columns and labels:
# Experiment in all cases: DTP human tumour cell line panel, 48 h
# [1] = system: HOP-18 NSCLC
# [2] = system: SNB-78 CNS
# [3] = system: XF 498 CNS
# [4] = system: A549 NSCLC
# [5] = system: OVCAR-5 ovarian
# [6] = system: UACC-62 melanoma
# [7] = system: HT29 colon
# [8] = system: DMS 114 small cell lung
# [9] = system: SK-MEL-2 melanoma
# [10] = system: SK-OV-3 ovarian
# [11] = system: SNB-75 CNS
# [12] = system: IGROV1 ovarian
# [13] = system: SF-539 CNS
# [14] = system: A498 renal
# [15] = system: RPMI-8226 leukemia
# [16] = system: SNB-19 CNS
# [17] = system: DMS 273 small cell lung
# [18] = system: DLD-1 colon
# [19] = system: EKVX NSCLC
# [20] = system: NCI-H460 lung
# [21] = system: CAKI-1 renal
# [22] = system: COLO 205 colon
# [23] = system: KM20L2 colon
# [24] = system: TK-10 renal
# [25] = system: ACHN renal
# [26] = system: M19-MEL melanoma
# [27] = system: K-562 leukemia
# [28] = system: KM12 colon
# [29] = system: RXF-631 renal
# [30] = system: NCI-H226 lung
# [31] = system: SF-268 CNS
# [32] = system: HOP-62 NSCLC
# [33] = system: SW-620 colon
# [34] = system: OVCAR-8 ovarian
# [35] = system: OVCAR-3 ovarian
# [36] = system: UACC-257 melanoma
# [37] = system: HCT-116 colon
# [38] = system: HL-60(TB) leukemia
# [39] = system: SF-295 CNS
# [40] = system: M14 melanoma
# [41] = system: LXFL 529 NSCLC
# [42] = system: MOLT-4 leukemia
# [43] = system: NCI-H23 lung
# [44] = system: CCRF-CEM leukemia
# [45] = system: UO-31 renal
# [46] = system: SR leukemia
# [47] = system: U251 CNS
# [48] = system: SK-MEL-5 melanoma
# [49] = system: SK-MEL-28 melanoma
# [50] = system: HCT-15 colon
# [51] = system: LOX IMVI melanoma
# [52] = system: HOP-92 NSCLC
# [53] = system: OVCAR-4 ovarian
# [54] = system: NCI-H522 lung
# [55] = system: MALME-3M melanoma
# [56] = system: RXF 393 renal
# [57] = system: HCC-2998 colon
# [58] = system: SN12C renal
structure (smiles),measurement,setting,value
C=C(C(=O)C(=O)Oc1ccc(Cl)cc1)C(=O)c1ccc(C)cc1,TGI,[1],> 100 µM
same,TGI,[2],> 100 µM
same,TGI,[3],> 100 µM
same,TGI,[4],> 100 µM
same,TGI,[5],> 100 µM
same,TGI,[6],> 100 µM
same,TGI,[7],> 100 µM
same,TGI,[8],> 100 µM
same,TGI,[9],> 100 µM
same,TGI,[10],> 100 µM
same,TGI,[11],> 100 µM
same,TGI,[12],> 100 µM
same,TGI,[13],34.7 µM
same,TGI,[14],> 100 µM
same,TGI,[15],> 100 µM
same,TGI,[16],> 100 µM
same,TGI,[17],> 100 µM
same,TGI,[18],99.3 µM
same,TGI,[19],> 100 µM
same,TGI,[20],> 100 µM
same,TGI,[21],> 100 µM
same,TGI,[22],> 100 µM
same,TGI,[23],> 100 µM
same,TGI,[24],> 100 µM
same,TGI,[25],> 100 µM
same,TGI,[26],35.4 µM
same,TGI,[27],> 100 µM
same,TGI,[28],42.5 µM
same,TGI,[29],> 100 µM
same,TGI,[30],> 100 µM
same,TGI,[31],> 100 µM
same,TGI,[32],> 100 µM
same,TGI,[33],36.4 µM
same,TGI,[34],> 100 µM
same,TGI,[35],> 100 µM
same,TGI,[36],> 100 µM
same,TGI,[37],30.3 µM
same,TGI,[38],> 100 µM
same,TGI,[39],> 100 µM
same,TGI,[40],81.8 µM
same,TGI,[41],80 µM
same,TGI,[42],> 100 µM
same,TGI,[43],> 100 µM
same,TGI,[44],> 100 µM
same,TGI,[45],> 100 µM
same,TGI,[46],57.6 µM
same,TGI,[47],46.2 µM
same,TGI,[48],> 100 µM
same,TGI,[49],> 100 µM
same,TGI,[50],> 100 µM
same,TGI,[51],16.5 µM
same,TGI,[52],> 100 µM
same,TGI,[53],> 100 µM
same,TGI,[54],40 µM
same,TGI,[55],> 100 µM
same,TGI,[56],79.3 µM
same,TGI,[57],76 µM
same,TGI,[58],> 100 µM
